{"source": "patent US6706663B2", "about": "“Herbicidal 3-heterocyclic substituted benzisothiazole and benzisoxazole compounds” (Wyeth, priority 2000, dated 2004)", "key": {"[1]": {"system": "ORYSAT (Rice, Tebonnet)", "experiment": "Postemergence herbicidal evaluation", "format": "in vivo, Oryza sativa, (L.) Tebonnet", "conditions": "postemergence", "how_it_was_run": "(§1)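 Seedlings grown for about two weeks were sprayed postemergence and then kept under standard greenhouse care. Injury was rated visually 4–5 weeks after treatment on a 0–9 scale against untreated controls, and ratings from repeat tests were averaged.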"}, "[2]": {"system": "ECHCG (Echinochloa crus-galli)", "experiment": "Preemergence herbicidal evaluation", "format": "in vivo, (L.) Beau", "conditions": "rated 4-5 weeks after treatment", "how_it_was_run": "(§2)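 Seeds mixed with potting soil were planted atop about one inch of soil, then sprayed with test compound in aqueous acetone. Cups were kept in the greenhouse and rated visually 4–5 weeks after treatment on a 0–9 scale against untreated control.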"}, "[3]": {"system": "SETVI (Setaria viridis)", "experiment": "Preemergence herbicidal evaluation", "format": "in vivo, (L.) Beau", "conditions": "rated 4-5 weeks after treatment", "how_it_was_run": "as §2"}, "[4]": {"system": "ECHCG (Echinochloa crus-galli)", "experiment": "Postemergence herbicidal evaluation", "format": "in vivo, (L.) Beau", "conditions": "postemergence", "how_it_was_run": "as §1"}, "[5]": {"system": "IPOHE (Ipomoea hederacea)", "experiment": "Preemergence herbicidal evaluation", "format": "in vivo, (L.) Jacq.", "conditions": "rated 4-5 weeks after treatment"}, "[6]": {"system": "ORYSAT (Rice, Tebonnet)", "experiment": "Preemergence herbicidal evaluation", "format": "in vivo, Oryza sativa, (L.) Tebonnet", "conditions": "rated 4-5 weeks after treatment"}, "[7]": {"system": "ABUTH (Abutilon theophrasti)", "experiment": "Postemergence herbicidal evaluation", "format": "in vivo, Medic.", "conditions": "postemergence", "how_it_was_run": "as §1"}, "[8]": {"system": "CYPIR (Cyperus iria)", "experiment": "Flooded paddy, preemergence weed control", "format": "in vivo", "conditions": "rated 3-4 weeks after treatment, 0-9 rating scale", "how_it_was_run": "(§3)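 Preemergence, flooded: propagules planted at 0.5 cm depth in silt loam, water level maintained at 1.5 to 3 cm over soil, containers kept on greenhouse benches. Activity scored 0-9 by eye relative to a control plant.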"}, "[9]": {"system": "SAGPY (Sagittaria pygmaea)", "experiment": "Flooded paddy, preemergence weed control", "format": "in vivo, L.", "conditions": "rated 3-4 weeks after treatment, 0-9 rating scale", "how_it_was_run": "as §3"}, "[10]": {"system": "ECHORC (Echinochloa oryzoides)", "experiment": "Flooded paddy, preemergence weed control", "format": "in vivo, Echinochloa oryzoides (Ard.) Fritsch.", "conditions": "rated 3-4 weeks after treatment, 0-9 rating scale", "how_it_was_run": "as §3"}, "[11]": {"system": "MOOVA (Monochoria vaginalis)", "experiment": "Flooded paddy, preemergence weed control", "format": "in vivo, Presl.", "conditions": "rated 3-4 weeks after treatment, 0-9 rating scale", "how_it_was_run": "as §3"}, "[12]": {"system": "CASOB (Cassia obtusifolia)", "experiment": "Preemergence herbicidal evaluation", "format": "in vivo, L.", "conditions": "rated 4-5 weeks after treatment", "how_it_was_run": "as §2"}, "[13]": {"system": "AMBEL (Ambrosia artemisifolia)", "experiment": "Preemergence herbicidal evaluation", "format": "in vivo, L.", "conditions": "rated 4-5 weeks after treatment", "how_it_was_run": "as §2"}, "[14]": {"system": "CHEAL (Chenopodium album)", "experiment": "Preemergence herbicidal evaluation", "format": "in vivo, L.", "conditions": "rated 4-5 weeks after treatment", "how_it_was_run": "as §2"}, "[15]": {"system": "ZEAMX (Corn, Field)", "experiment": "Postemergence herbicidal evaluation", "format": "in vivo, Zea mays, L.", "conditions": "postemergence", "how_it_was_run": "as §1"}, "[16]": {"system": "IPOHE (Ipomoea hederacea)", "experiment": "Postemergence herbicidal evaluation", "format": "in vivo, (L.) Jacq.", "conditions": "postemergence", "how_it_was_run": "as §1"}, "[17]": {"system": "ORYSAT (Rice, Tebonnet)", "experiment": "Flooded paddy, post-transplant rice tolerance", "format": "in vivo, Oryza sativa, (L.) Tebonnet", "conditions": "flooded paddy, post-transplant rice, rated 3-4 weeks after treatment, 0-9 rating scale", "how_it_was_run": "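Two ten-day-old seedlings were transplanted into silt loam, flooded and held at 1.5 to 3 cm water above the soil before herbicide treatment. Pots stayed in the greenhouse at that water level. Injury was scored visually on a 0-9 scale versus untreated control.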"}, "[18]": {"system": "GLXMAW (Soybean, Williams)", "experiment": "Postemergence herbicidal evaluation", "format": "in vivo, Glycine max, (L.) Merr. cv Williams", "conditions": "postemergence", "how_it_was_run": "as §1"}, "[19]": {"system": "SETVI (Setaria viridis)", "experiment": "Postemergence herbicidal evaluation", "format": "in vivo, (L.) Beau", "conditions": "postemergence", "how_it_was_run": "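Seedlings about two weeks old were sprayed with compound in 50/50 acetone/water plus 0.5% TWEEN 20, at the equivalent of about 0.0040 to 1.000 kg/ha. Plants were kept in a greenhouse and visually rated 0-9 against a control four to five weeks after treatment. Repeat tests were averaged.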"}, "[20]": {"system": "GALAP (Galium aparine)", "experiment": "Postemergence herbicidal evaluation", "format": "in vivo", "conditions": "postemergence", "how_it_was_run": "as §1"}}, "data": [{"smiles": "Cn1c(C(F)(F)F)cc(=O)n(-c2cc3c(C4OCCCO4)nsc3cc2F)c1=O", "note": "[Compound 62, 3-(3-m-dioxan-2-yl-6-fluoro-1,2-benzisothiazol-5-yl)-1-methyl-6-(trifluoromethyl)uracil]", "values": [{"measurement": "ORYSAT herbicidal rating", "setting": "[1]; rate 0.0320 kg/ha", "value": 6.0}, {"measurement": "ORYSAT herbicidal rating", "setting": "[1]; rate 0.0620 kg/ha", "value": 6.0}, {"measurement": "Preemergence herbicidal rating ECHCG", "setting": "[2]; Rate 0.0620 kg/ha", "value": 9.0}, {"measurement": "Preemergence herbicidal rating ECHCG", "setting": "[2]; Rate 0.1250 kg/ha", "value": 9.0}, {"measurement": "Preemergence herbicidal rating ECHCG", "setting": "[2]; Rate 0.2500 kg/ha", "value": 9.0}, {"measurement": "Preemergence herbicidal rating SETVI", "setting": "[3]; Rate 0.0620 kg/ha", "value": 9.0}, {"measurement": "Preemergence herbicidal rating SETVI", "setting": "[3]; Rate 0.1250 kg/ha", "value": 9.0}, {"measurement": "Preemergence herbicidal rating SETVI", "setting": "[3]; Rate 0.2500 kg/ha", "value": 9.0}, {"measurement": "ECHCG herbicidal rating", "setting": "[4]; rate 0.0320 kg/ha", "value": 6.0}, {"measurement": "ECHCG herbicidal rating", "setting": "[4]; rate 0.0620 kg/ha", "value": 9.0}, {"measurement": "Preemergence herbicidal rating IPOHE", "setting": "[5]; Rate 0.0620 kg/ha", "value": 9.0}, {"measurement": "Preemergence herbicidal rating IPOHE", "setting": "[5]; Rate 0.1250 kg/ha", "value": 9.0}, {"measurement": "Preemergence herbicidal rating IPOHE", "setting": "[5]; Rate 0.2500 kg/ha", "value": 9.0}, {"measurement": "Preemergence herbicidal rating ORYSAT", "setting": "[6]; Rate 0.0620 kg/ha", "value": 9.0}, {"measurement": "Preemergence herbicidal rating ORYSAT", "setting": "[6]; Rate 0.1250 kg/ha", "value": 9.0}, {"measurement": "Preemergence herbicidal rating ORYSAT", "setting": "[6]; Rate 0.2500 kg/ha", "value": 9.0}, {"measurement": "ABUTH herbicidal rating", "setting": "[7]; rate 0.0320 kg/ha", "value": 9.0}, {"measurement": "ABUTH herbicidal rating", "setting": "[7]; rate 0.0620 kg/ha", "value": 9.0}, {"measurement": "herbicidal rating, CYPIR", "setting": "[8]; rate 0.0080 kg/ha", "value": 4.5}, {"measurement": "herbicidal rating, CYPIR", "setting": "[8]; rate 0.0320 kg/ha", "value": 9.0}, {"measurement": "herbicidal rating, CYPIR", "setting": "[8]; rate 0.1250 kg/ha", "value": 9.0}, {"measurement": "herbicidal rating, SAGPY", "setting": "[9]; rate 0.0080 kg/ha", "value": 9.0}, {"measurement": "herbicidal rating, SAGPY", "setting": "[9]; rate 0.0320 kg/ha", "value": 6.0}, {"measurement": "herbicidal rating, SAGPY", "setting": "[9]; rate 0.1250 kg/ha", "value": 9.0}, {"measurement": "herbicidal rating, ECHORC", "setting": "[10]; rate 0.0080 kg/ha", "value": 8.5}, {"measurement": "herbicidal rating, ECHORC", "setting": "[10]; rate 0.0320 kg/ha", "value": 9.0}, {"measurement": "herbicidal rating, ECHORC", "setting": "[10]; rate 0.1250 kg/ha", "value": 9.0}, {"measurement": "herbicidal rating, MOOVA", "setting": "[11]; rate 0.0080 kg/ha", "value": 8.0}, {"measurement": "herbicidal rating, MOOVA", "setting": "[11]; rate 0.0320 kg/ha", "value": 9.0}, {"measurement": "herbicidal rating, MOOVA", "setting": "[11]; rate 0.1250 kg/ha", "value": 9.0}, {"measurement": "Preemergence herbicidal rating CASOB", "setting": "[12]; Rate 0.0620 kg/ha", "value": 9.0}, {"measurement": "Preemergence herbicidal rating CASOB", "setting": "[12]; Rate 0.1250 kg/ha", "value": 9.0}, {"measurement": "Preemergence herbicidal rating CASOB", "setting": "[12]; Rate 0.2500 kg/ha", "value": 9.0}, {"measurement": "Preemergence herbicidal rating AMBEL", "setting": "[13]; Rate 0.0620 kg/ha", "value": 9.0}, {"measurement": "Preemergence herbicidal rating AMBEL", "setting": "[13]; Rate 0.1250 kg/ha", "value": 9.0}, {"measurement": "Preemergence herbicidal rating AMBEL", "setting": "[13]; Rate 0.2500 kg/ha", "value": 9.0}, {"measurement": "Preemergence herbicidal rating CHEAL", "setting": "[14]; Rate 0.0620 kg/ha", "value": 9.0}, {"measurement": "Preemergence herbicidal rating CHEAL", "setting": "[14]; Rate 0.1250 kg/ha", "value": 9.0}, {"measurement": "Preemergence herbicidal rating CHEAL", "setting": "[14]; Rate 0.2500 kg/ha", "value": 9.0}, {"measurement": "ZEAMX herbicidal rating", "setting": "[15]; rate 0.0320 kg/ha", "value": 6.0}, {"measurement": "ZEAMX herbicidal rating", "setting": "[15]; rate 0.0620 kg/ha", "value": 7.0}, {"measurement": "IPOHE herbicidal rating", "setting": "[16]; rate 0.0320 kg/ha", "value": 9.0}, {"measurement": "IPOHE herbicidal rating", "setting": "[16]; rate 0.0620 kg/ha", "value": 9.0}, {"measurement": "herbicidal rating, ORYSAT (rice tolerance)", "setting": "[17]; rate 0.0080 kg/ha", "value": 9.0}, {"measurement": "herbicidal rating, ORYSAT (rice tolerance)", "setting": "[17]; rate 0.0320 kg/ha", "value": 9.0}, {"measurement": "herbicidal rating, ORYSAT (rice tolerance)", "setting": "[17]; rate 0.1250 kg/ha", "value": 9.0}, {"measurement": "GLXMAW herbicidal rating", "setting": "[18]; rate 0.0320 kg/ha", "value": 9.0}, {"measurement": "GLXMAW herbicidal rating", "setting": "[18]; rate 0.0620 kg/ha", "value": 9.0}, {"measurement": "SETVI herbicidal rating", "setting": "[19]; rate 0.0320 kg/ha", "value": 9.0}, {"measurement": "SETVI herbicidal rating", "setting": "[19]; rate 0.0620 kg/ha", "value": 9.0}, {"measurement": "GALAP herbicidal rating", "setting": "[20]; rate 0.0320 kg/ha", "value": 9.0}, {"measurement": "GALAP herbicidal rating", "setting": "[20]; rate 0.0620 kg/ha", "value": 9.0}]}]}
